Among the test systems are ACHN renal; EKVX NSCLC; KM12 colon; LOX IMVI melanoma; MDA-MB-231 breast; MDA-MB-435; MDA-N; NCI/ADR-RES ovarian; SK-MEL-5 melanoma; SNB-75 CNS.
Common to all, as to test: NCI-60 cell line screen, 48 h

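48-hour exposure; five concentrations; linearly interpolated endpoints. GI50: concentration for 50% inhibition of growth. TGI marks complete inhibition of growth.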 Some results are limits rather than exact numbers.

For `NC(N)=NS(=O)(=O)c1ccc(NC(=O)c2c3ccccc3nc3ccccc23)cc1`, the TGI in the assay on ACHN renal, in the assay on EKVX NSCLC, in the assay on KM12 colon, in the assay with LOX IMVI melanoma, with MDA-MB-231 breast and in the assay on MDA-MB-435 was more than 100 µM throughout. For the same molecule, the TGI in the assay with MDA-N, with NCI/ADR-RES ovarian, in the assay with SK-MEL-5 melanoma and in the assay with SNB-75 CNS was more than 100 µM throughout.

For the molecule `C=CCn1c(=O)c(-c2ccccc2)c(O)c2ccccc21`, the TGI in the assay with ACHN renal, in the assay with EKVX NSCLC, with KM12 colon, with LOX IMVI melanoma, in the assay on MDA-MB-231 breast and in the assay on MDA-MB-435 was more than 100 µM in each case. For the same molecule, the TGI in the assay with MDA-N, with NCI/ADR-RES ovarian, in the assay on SK-MEL-5 melanoma and with SNB-75 CNS was more than 100 µM throughout.

Consider `CCN1CCc2sc3[nH]c(=S)n(C)c(=O)c3c2C1`, for which the TGI with ACHN renal, in the assay with EKVX NSCLC, in the assay on KM12 colon, in the assay with LOX IMVI melanoma, in the assay on MDA-MB-231 breast and in the assay with MDA-MB-435 was more than 100 µM in each case. Further, the TGI in the assay with MDA-N, with NCI/ADR-RES ovarian, in the assay with SK-MEL-5 melanoma and with SNB-75 CNS was more than 100 µM each time.

As to `Cc1c2cccc-2c(N(C)C)cc2c1[nH]c1ccccc12`, the TGI in the assay with ACHN renal was determined as 12.4 µM; in the assay with EKVX NSCLC, 5.05 µM; in the assay with KM12 colon, 7.98 µM; in the assay with LOX IMVI melanoma, 15.3 µM; in the assay on MDA-MB-231 breast it was 23.8 µM; with MDA-MB-435, 22.5 µM. Moreover, the TGI in the assay on MDA-N came to 22.4 µM; in the assay on NCI/ADR-RES ovarian it was 13.4 µM; in the assay with SK-MEL-5 melanoma, 18.5 µM.

On to `COc1cc(C=Nc2ccc(Oc3ccc(Cl)cc3)c(Cl)c2)cc(OC)c1OC`, for which the TGI in the assay with ACHN renal was 83.8 µM; in the assay on EKVX NSCLC it was 48.1 µM; with KM12 colon, 38.1 µM; with LOX IMVI melanoma, 32.2 µM; with MDA-MB-231 breast it was 35 µM; in the assay on MDA-MB-435, more than 100 µM. In addition, the TGI is 51.3 µM in the assay with MDA-N, 48.8 µM in the assay with NCI/ADR-RES ovarian, 34.9 µM in the assay with SK-MEL-5 melanoma and 57.9 µM with SNB-75 CNS.

Take `Cc1ccc(-n2cc(-c3ccc(Cl)cc3)c3c(NNC(=S)NCc4ccccc4)ncnc32)cc1`: the TGI is more than 100 µM with ACHN renal; 73.5 µM in the assay on EKVX NSCLC; 20 µM in the assay with KM12 colon; 22.8 µM in the assay with LOX IMVI melanoma; 59.5 µM with MDA-MB-231 breast; 76.1 µM in the assay with MDA-MB-435. In addition, the TGI was more than 100 µM in the assay with MDA-N, 32.8 µM in the assay on NCI/ADR-RES ovarian and 19.5 µM in the assay on SK-MEL-5 melanoma.

As for `COc1ccc(N=Nc2ccc3oc(=O)c(C(=O)Nc4ccc(OC)cc4)cc3c2)cc1`, the TGI with ACHN renal was found to be 56.5 µM; with EKVX NSCLC, 97.7 µM; in the assay with KM12 colon, 33.5 µM; in the assay with LOX IMVI melanoma it was 18.1 µM; in the assay on MDA-MB-231 breast, 88.1 µM; in the assay on MDA-MB-435, 54.8 µM. The TGI in the assay with MDA-N was more than 100 µM; in the assay on NCI/ADR-RES ovarian, 51.7 µM; in the assay with SK-MEL-5 melanoma, 33.3 µM; in the assay with SNB-75 CNS, 54.3 µM.

Turning to `COc1cc(NS(C)(=O)=O)ccc1N1Cc2cnc3ccc4[nH]ccc1c4c23`, the TGI is more than 100 µM with ACHN renal; more than 100 µM with EKVX NSCLC; more than 100 µM with KM12 colon; 41.6 µM with LOX IMVI melanoma; 92.4 µM in the assay on MDA-MB-231 breast; more than 100 µM with MDA-MB-435. The figures for the TGI in the assay with MDA-N, in the assay on NCI/ADR-RES ovarian and with SK-MEL-5 melanoma were more than 100 µM, more than 100 µM and 75.8 µM, respectively.

On to `CC(=O)CC(=O)Nn1c(-c2cccs2)nc2ccc(I)cc2c1=O`, for which the TGI with ACHN renal is more than 100 µM; in the assay with EKVX NSCLC, more than 66.1 µM; in the assay with KM12 colon, more than 100 µM; in the assay on LOX IMVI melanoma, more than 90 µM; in the assay on MDA-MB-231 breast it was 63.7 µM; with MDA-MB-435, more than 100 µM. The TGI in the assay with MDA-N was more than 100 µM; in the assay with NCI/ADR-RES ovarian it was more than 94.4 µM; in the assay with SK-MEL-5 melanoma it was more than 65.5 µM; with SNB-75 CNS, more than 100 µM. The GI50 with MDA-MB-231 breast was 16.4 µM.

For the molecule `COc1cc(OC)cc(N(C)Cc2cnc3nc(N)nc(N)c3c2C)c1`, the TGI with ACHN renal, in the assay on EKVX NSCLC, in the assay on KM12 colon, with LOX IMVI melanoma, with MDA-MB-231 breast and in the assay with MDA-MB-435 was more than 100 µM each time. The TGI in the assay with MDA-N, in the assay with NCI/ADR-RES ovarian, in the assay with SK-MEL-5 melanoma and with SNB-75 CNS was more than 100 µM throughout.

For the molecule `Clc1ccc(CCN2CCN(CCCc3ccccc3)CC2)cc1Cl`, the TGI in the assay with ACHN renal turned out to be 39.4 µM; with EKVX NSCLC it was 32.9 µM; in the assay with KM12 colon, 32.1 µM; in the assay on LOX IMVI melanoma, 31.5 µM; in the assay with MDA-MB-231 breast, 30.8 µM; in the assay on MDA-MB-435, 31.1 µM. Also, the TGI in the assay with MDA-N turned out to be 31.4 µM; in the assay with NCI/ADR-RES ovarian, 28.5 µM; in the assay on SK-MEL-5 melanoma, 29.9 µM.

Take `COC(=O)[C@H]1ON2O[C@H](OC3CCCC[C@@H]3c3ccccc3)C[C@@H]3CC[C@H]1[C@@]32C` (some centres not stated): the TGI in the assay with ACHN renal, in the assay with EKVX NSCLC, in the assay with KM12 colon, in the assay on LOX IMVI melanoma, with MDA-MB-231 breast and in the assay with MDA-MB-435 was more than 100 µM in each case. Moreover, the TGI with MDA-N, in the assay on NCI/ADR-RES ovarian, in the assay on SK-MEL-5 melanoma and with SNB-75 CNS was more than 100 µM each time.

In the case of `C=CC(C)(C)c1cc([C@@H]2COc3cc(O)ccc3C2=O)c(O)c(OC)c1OC`, the TGI is 33.7 µM in the assay on ACHN renal; 58.3 µM in the assay on EKVX NSCLC; 27.8 µM in the assay with KM12 colon; 37.9 µM with LOX IMVI melanoma; 37.9 µM in the assay with MDA-MB-231 breast; 21.5 µM in the assay with MDA-MB-435. The TGI with MDA-N stood at 26 µM; in the assay with NCI/ADR-RES ovarian, 43 µM; in the assay on SK-MEL-5 melanoma, 22.7 µM; in the assay with SNB-75 CNS, 25.6 µM.

Values taken from PubChem BioAssay (NCI).
